Tests used:
[1] = tested on: PDE4 enzyme from U937 human monocytic cells; assay: Enzyme assay using purified PDE4 enzyme; type: biochemical
Source text: Cyclopropane carboxylic acid {2-[(1S)-1-(3-ethoxy-4-methoxy-phenyl)-2-methanesulfonyl-ethyl]-3-oxo-2,3-dihydro-1H-isoindol-4-yl}-amide (“Compound A”) is a novel compound with anti-inflammatory activity in clinical development for the treatment of a variety of chronic inflammatory conditions. Pharmacologically, Compound A blocks the degradation of cyclic adenosine monophosphate (cAMP) via inhibition of the phosphodiesterase type IV (PDE4) enzyme, resulting in an increase in cAMP in PDE4-expressing cells including monocytes, T cells, and neutrophils. Enzyme assay data using purified PDE4 enzyme from U937 human monocytic cells indicate that Compound A has a PDE4 IC50 of 100 nM (50 ng/mL). Compound A and methods for its synthesis are described, e.g., in U.S. Patent Publication No. 2010/0129363, the disclosure of which is hereby incorporated by reference in its entirety. Compound A may also be prepared according to the process described in U.S. Patent Publication No. 2010/0168475, the disclosure of which is hereby incorporated in its entirety.

[2] = Solubility of the drug substance; type: physicochemical; conditions: qualitative statement
Source text: Due to its diversified pharmacological properties, Compound A is useful in treating, preventing, and/or managing various diseases or disorders.

IC50 [1]: 100 nM
PDE4 IC50 ([1]; same value in mass units): 50 ng/mL
Solubility [2]: poorly soluble
Compound: CCOc1cc([C@@H](CS(C)(=O)=O)N2Cc3cccc(NC(=O)C4CC4)c3C2=O)ccc1OC [Compound A, cyclopropanecarboxylic acid {2-[(1S)-1-(3-ethoxy-4-methoxy-phenyl)-2-methanesulfonyl-ethyl]-3-oxo-2,3-dihydro-1H-isoindol-4-yl}-amide]

— patent US9884042B2, “Formulations of cyclopropanecarboxylic acid {2-[(1S)-1-(3-ethoxy-4-methoxy-phenyl)-2-methanesulfonyl-ethyl]-3-oxo-2,3-dihydro-1H-isoindol-4-yl}-amide” (Celgene Corporation, priority 2011, dated 2018)
